Data from article PMC7076875 (2020).

Test system: apt 32 (DNA, aptamer) AAAAAAAAAAAAGGGCACGTGTTGTCTCTCTGTGTCTCGTGCCC
Assay: lateral flow strip, competition with complementary strand
Conditions: 120 mM NaCl, 5 mM KCl, 200 mM MgCl2; 10 mM Tris pH 7.4, 5% methanol, room temperature; immobilised probe 2 competes; tested at 100 ng/mL

| binding | SMILES |
| --- | --- |
| no | C[C@@H]1Cc2c(Cl)cc(C(=O)N[C@@H](Cc3ccccc3)C(=O)O)c(O)c2C(=O)O1 |
| no | C[C@H]1CCCC(=O)CCC/C=C/c2cc(O)cc(O)c2C(=O)O1 |
| no | CCCC[C@@H](C)[C@@H](OC(=O)C[C@@H](CC(=O)O)C(=O)O)[C@H](C[C@@H](C)C[C@H](O)CCCC[C@@H](O)C[C@H](O)[C@H](C)N)OC(=O)C[C@@H](CC(=O)O)C(=O)O |
